The text below walks through data of US4317817A, “Novel steroid 5α-reductase inhibitors” (Richardson-Merrell Inc., priority 1980, dated 1982).

In one assay the test system is preputial glands. Put plainly: Preputial gland weight in castrated male rats treated with testosterone. It counts as in vivo. As to conditions: 200 mg/kg gavage every 8 hours for 8 days plus testosterone 0.6 mg/rat s.c. daily; compared to control rats.
The next assay concerns ventral prostate. Put plainly: Prostate weight in castrated male rats treated with testosterone (benign prostatic hypertrophy procedure). To be noted: 200 mg/kg gavage every 8 hours for 8 days plus testosterone 0.6 mg/rat s.c. daily; compared to testosterone only (Group II). In kind it is in vivo. As for the experimental part:
The effectiveness of the present compounds for the treatment of benign prostatic hypertrophy can be illustrated by the following procedure using 3 groups of castrated male rats. Starting 10 days after castration, Test Group I (5 animals) received 200 mg/kg of (5α,20R) -4-diazo-21-hydroxy-20-methylpregnan-3-one, given by gavage every 8 hours for 8 days as a suspension in 0.25 % aqueous Methocel. Starting 8 hours after the first dose of test compound, the animals also received testosterone daily at a dose of 0.6 mg/rat s.c. in olive oil. The last dose of test compound was administered 8 hours after the last dose of testosterone and the animals were sacrificed 8 hours later. Test Group II (12 animals) received only the testosterone treatment described above while the third group of rats (10 animals) served as controls and received the oral and s.c. vehicles only. At sacrifice, the ventral prostate was removed and weighed.

In assay [1] the test system is testosterone 5α-reductase. Put plainly: Inhibition of 5α-reductase isolated from rat prostate gland (prostate microsomes, 4-14C-testosterone). In kind it is biochemical. To be noted: testosterone 2×10^-6 M, microsomes equivalent to 180 mg fresh tissue.
The target in another assay is 5α-reductase. As to the kind of experiment: Affinity (Ki, Km) for 5α-reductase. It counts as biochemical. An excerpt: The potency of any enzyme inhibitor is often expressed in terms of its inhibition constant, Ki, which is defined mathematically in terms of established relationships of enzyme-catalyzed reaction rates to inhibitor and substrate concentrations. […] In the case of the substrate, the corresponding value is known as the Km, the relationship to combining power being roughly the same.

Consider `C[C@@H](CO)[C@H]1CC[C@H]2[C@@H]3CC[C@H]4C(=[N+]=[N-])C(=O)CC[C@]4(C)[C@H]3CC[C@]12C` [(5α,20R)-4-Diazo-21-hydroxy-20-methylpregnan-3-one], for which the “weights of preputial glands” value in the assay on preputial glands is given as “significantly less than weights of preputial glands of the control rats”. The “prostatic weight (ventral prostate)” value in the assay on ventral prostate was “significant reduction in prostatic weight”. Besides, in assay [1] (inhibitor 3×10^-7 M), the “inhibition of the conversion of testosterone to 5α-reduced products” value is reported as 75%. The “inhibition of the conversion of testosterone to DHT and androstanediol (ADIOL) overall” value in assay [1] (inhibitor 3×10^-8 M) was 49%.
In general, Ki refers to a measure of affinity in units of concentration, obtained from inhibition or displacement. `C[C@H](CO)[C@H]1CC[C@H]2[C@@H]3CC[C@H]4C(=[N+]=[N-])C(=O)CC[C@]4(C)[C@H]3CC[C@]12C` had a Ki at 5α-reductase of 0.035 µM. For the same compound, in the assay with 5α-reductase (vs Km of testosterone), the “affinity for the enzyme relative to the substrate (testosterone)” value was 29 times. Besides, in the assay on 5α-reductase (vs previously known inhibitor of the comparison), the “potency relative to the previous inhibitor” value is 6.3 times.
For the compound `CC(CO)[C@H]1CC[C@H]2[C@@H]3CCC4=CC(=O)CC[C@]4(C)[C@H]3CC[C@]12C` (stereo partly drawn) [reference compound], on 5α-reductase, affinity was put at a Ki of 0.22 µM.
Broadly, the Km is the concentration of substrate that gives half-maximal velocity. Regarding `C[C@]12CC[C@H]3[C@@H](CCC4=CC(=O)CC[C@@]43C)[C@@H]1CC[C@@H]2O` [testosterone, reference compound], in the assay with 5α-reductase (substrate), the Km was found to be 1 µM.
